Where “and” joins values, the source holds several entries; their conditions need not be identical. Equal entries are not always repeated.
Key:
Format in all cases: cell-based, human
[1] = system: SOX9; experiment: Stem cell chondrogenesis, real time PCR gene expression: SOX9; details: Day 14
Experimental: The treatment protocol included expanding 5 HUXMA stem cells in 182 cm^2 flasks containing 40 […] to 80-90% confluence. Cells were trypsinized from the flasks and a 1.0×10^7 cell suspension of HUXMA stem cells was warmed in Cyagen Chondrogenic Differentiation medium. 20 μl of warmed cell suspension was spotted in the middle of each well of a 24-well tissue culture plate (200,000 cells per spot), and incubated at 37° C. and 5% CO2 for one hour. […] Medium exchanges were performed every 3-4 days by aspirating the medium from the wells and replacing with fresh chondrogenic medium, diluted stocks, and TGF beta 3, as described above. […] Medium from the wells was removed and saved for further protein analysis. Qiagen RNeasy plus lysis buffer (with 2mercaptoethanol) was added to each well and gently shaken for 10 minutes. The lysed cell suspensions from each well were transferred to Qiashredder columns and spun at 14,000 rpm for 2 minutes. RNA isolation proceeded by RNeasyTM plus manufacturer's protocol. RNA was eluted from the Qiagen columns using 25 μl RNase free water. cDNA synthesis and real time PCR was conducted as follows. First strand synthesis of cDNA from all samples was performed in 20 μl total volume using 10 μl isolated RNA. All cDNA reactions were then diluted with 30 μl nuclease free water. Real time PCR was then performed using 5 μl diluted cDNA, Roche Syber green master mix, and Qiagen RT^2 gPCRTM primer pairs in 20 μl total reaction volume.

[2] = system: Collagen 2A1; experiment: Stem cell chondrogenesis, real time PCR gene expression: Collagen 2A1; details: for Mean regulation / regulation: vs saline; for Mean ΔCp / ΔCp: Collagen 2A1 vs GAPDH; for regulation, Collagen 2A1 / Mean regulation, Collagen 2A1: fold regulation vs saline; for regulation, Collagen 2A1 / ΔCp, Collagen 2A1 / 2^-ΔΔCp vs saline, Collagen 2A1 / ΔΔCp vs saline, Collagen 2A1: single replicate well; for Mean regulation, Collagen 2A1 / Mean ΔCp, Collagen 2A1: triplicate wells; for ΔCp, Collagen 2A1: human bone marrow MSC, chondrogenic medium + TGF beta 3; for ΔCp, Collagen 2A1 / 2^-ΔΔCp vs saline, Collagen 2A1 / ΔΔCp vs saline, Collagen 2A1 / Mean ΔCp, Collagen 2A1: vs Actin
Experimental: (§1) • Stem Cells: Bone marrow derived human mesenchymal stem cells: Passage 5 Bone marrow derived human mesenchymal stem cells (HUXMA-01001, Cyagen Biosciences, Sunnyvale Calif.) • Mesenchymal Stem Cell Chondrogenic Differentiation medium (GUXMX-90041, Cyagen Biosciences, Sunnyvale Calif.) • TheraPEAK MSCGM chemically defined Stem cell medium (190632 Lonza) • 1 mM Dexamethasone acetate and mifepristone in absolute ethanol (Sigma) • Saline or 0.9% Sodium chloride for injection ZR Flush (Excelsior Medical, Neptune N.J.) • Sterile filtered 0.6 mM sodium caprylate in saline (sigma) • Sterile filtered 3 mM NAT in saline (sigma); To prepare, heat at 60° C. for 30 minutes then sonicate for 5 minutes. • Sterile filtered 10 mM DADKP in saline • 0.2 μM syringe filters • Hepes buffered saline, Trypsin/EDTA, Trypsin neutralizing solution (Lonza reagent pack) • 182 cm2 tissue culture flasks • pipettes and sterile tips • Tissue culture hood, humidified CO2 incubator, water or bead bath • 24 well tissue culture plates • Qiagen RNeasy plus spin columns (Qiagen 74134) • Qiagen RT2 qPCR primer pairs for Collagen 2A1, MMP13, TIMP1, Aggrecan, GAPDH, and Actin B • Roche Sybr green I master mix and Invitrogen Superscript VILO master mix. • Roche 480 lightcycler
(§2) The following stock drug treatment solutions were prepared in saline for injection and warmed to 37° C. in bath: • 4 μM dexamethasone • 4 μM mifepristone • 3 mM NAT • 0.6 mM caprylate • 80 μM DADKP • Mix of 3 mM NAT, 0.6 mM caprylate, 80 μM DADKP (“Ampion” mix)
(§3) Cyagen Chondrogenic Differentiation medium was prepared by manufacturer protocols but excluding dexamethasone and TGF beta 3 supplements, and warmed to 37° C. in bath.
(§4) The treatment protocol included expanding 5 HUXMA stem cells in 182 cm^2 flasks containing 40 mls TheraPEAK™ MSCGM to 80-90% confluence. Cells were trypsinized from the flasks and a 1.0×10^7 cell suspension of HUXMA stem cells was warmed in Cyagen Chondrogenic Differentiation medium. 20 μl of warmed cell suspension was spotted in the middle of each well of a 24-well tissue culture plate (200,000 cells per spot), and incubated at 37° C. and 5% CO2 for one hour.
(§5) The plates were removed from the incubator and an additional 720 μl chondrogenic medium was added to each well. 250 μl saline, or drug solutions were added to the appropriate wells in triplicate (bringing the final drug dilution to one-quarter of the stock drug treatment solution concentrations). 10 μl of TGF beta 3 solution (supplied by Cyagen) was added to each well, and the plates were returned to the incubator.
(§6) RNA isolation and analysis was conducted for all plates as follows at days 7, 14, and 22 post treatment (with the described medium exchanges). […] Qiagen RNeasy plus lysis buffer (with 2mercaptoethanol) was added to each well and gently shaken for 10 minutes. The lysed cell suspensions from each well were transferred to Qiashredder columns and spun at 14,000 rpm for 2 minutes. RNA isolation proceeded by RNeasy™ plus manufacturer's protocol. RNA was eluted from the Qiagen columns using 25 μl RNase free water.
(§7) cDNA synthesis and real time PCR was conducted as follows. First strand synthesis of cDNA from all samples was performed in 20 μl total volume using 10 μl isolated RNA. All cDNA reactions were then diluted with 30 μl nuclease free water. Real time PCR was then performed using 5 μl diluted cDNA, Roche Syber green master mix, and Qiagen RT^2 gPCR™ primer pairs in 20 μl total reaction volume. Relative gene expression was determined by delta deta Ct method.

[3] = system: Aggrecan; experiment: Stem cell chondrogenesis, real time PCR gene expression: Aggrecan; details: Day 22; for Mean ΔCp / ΔCp: Aggrecan vs Actin; for Mean regulation / regulation: vs saline
Experimental: as §1, §2, §3, §4, §5, §6, §7

[4] = system: MMP13; experiment: Stem cell chondrogenesis, real time PCR gene expression: MMP13; details: for Mean regulation: vs saline; for Mean ΔCp / ΔCp: MMP13 vs GAPDH
Experimental: as §1, §2, §3, §4, §5, §6, §7

[5] = system: TIMP1; experiment: Stem cell chondrogenesis, real time PCR gene expression: TIMP1; details: Day 22; for Mean ΔCp / ΔCp: TIMP1 vs Actin
[6] = vs Actin, single replicate well
[7] = Day 7, vs Actin, single replicate well

Structure (SMILES): CC(=O)OCC(=O)[C@@]1(O)[C@H](C)C[C@H]2[C@@H]3CCC4=CC(=O)C=C[C@]4(C)[C@@]3(F)[C@@H](O)C[C@@]21C [Dexamethasone, Dexamethasone acetate]
- regulation, SOX9 ([1]; fold regulation vs saline, single replicate well): −2.04 and −1.24 and −1.80
- Mean regulation, SOX9 ([1]; fold regulation vs saline, triplicate wells): −1.69
- ΔCp, SOX9 ([1]; human bone marrow MSC, chondrogenic medium + TGF beta 3, vs Actin, single replicate well): 8.21 and 7.49 and 8.03
- 2^-ΔΔCp vs saline, SOX9 [1, 6]: 0.4897 and 0.8066 and 0.5548
- ΔΔCp vs saline, SOX9 [1, 6]: 1.03 and 0.31 and 0.85
- Mean ΔCp, SOX9 ([1]; vs Actin, triplicate wells): 7.91
- 2-^ΔΔCP vs saline ([2]; Collagen 2A1, Day 22, Table 12): 141.7 and 196.27 and 168.51
- Cp Coll ([2]; Collagen 2A1, Day 22, Table 12): 22.42 and 21.94 and 21.42
- 2^-ΔΔCp vs saline ([2]; Collagen 2A1, Day 22, Table 16): 141.7 and 196.27 and 168.51
- Cp Coll ([2]; Collagen 2A1, Day 22, Table 16): 22.42 and 21.94 and 21.42
- Mean regulation ([2]; Collagen 2A1, Day 22, Table 12): 168.82
- regulation ([2]; Collagen 2A1, Day 22, Table 12): 141.70 and 196.27 and 168.51
- Mean regulation ([2]; Collagen 2A1, Day 22, Table 16): 168.82
- regulation ([2]; Collagen 2A1, Day 22, Table 16): 141.70 and 196.27 and 168.51
- Mean ΔCp ([2]; Day 22, Table 12): 5.76
- ΔCp ([2]; Day 22, Table 12): 6 and 5.53 and 5.75
- Mean ΔCp ([2]; Day 22, Table 16): 5.76
- ΔCp ([2]; Day 22, Table 16): 6 and 5.53 and 5.75
- regulation, Collagen 2A1 ([2]; Day 7): −1.01 and 2.61 and 2.72
- Mean regulation, Collagen 2A1 ([2]; Day 7): 1.44
- ΔCp, Collagen 2A1 ([2]; Day 7): 6.75 and 5.35 and 5.29
- 2^-ΔΔCp vs saline, Collagen 2A1 ([2]; Day 7): 0.9885 and 2.6087 and 2.7195
- ΔΔCp vs saline, Collagen 2A1 ([2]; Day 7): 0.017 and −1.38 and −1.44
- Mean ΔCp, Collagen 2A1 ([2]; Day 7): 5.797
- regulation, Collagen 2A1 ([2]; Day 14): 7.29 and 10.39 and 6.57
- Mean regulation, Collagen 2A1 ([2]; Day 14): 8.08
- ΔCp, Collagen 2A1 ([2]; Day 14): 8.19 and 7.68 and 8.34
- 2^-ΔΔCp vs saline, Collagen 2A1 ([2]; Day 14): 7.2938 and 10.387 and 6.5735
- ΔΔCp vs saline, Collagen 2A1 ([2]; Day 14): −2.87 and −3.38 and −2.72
- Mean ΔCp, Collagen 2A1 ([2]; Day 14): 8.07
- Mean ΔCp ([3]; Table 12): 6.523
- ΔCp ([3]; Table 12): 6.28 and 6.69 and 6.6
- Mean ΔCp ([3]; Table 16): 6.523
- ΔCp ([3]; Table 16): 6.28 and 6.69 and 6.6
- 2-ΔΔCp vs saline ([3]; Aggrecan, Table 12): 15.313 and 11.525 and 12.267
- Cp Agg ([3]; Aggrecan, Table 12): 20.48 and 20.68 and 20.44
- 2^-ΔΔCp vs saline ([3]; Aggrecan, Table 16): 15.313 and 11.525 and 12.267
- Cp Agg ([3]; Aggrecan, Table 16): 20.48 and 20.68 and 20.44
- Mean regulation ([3]; Aggrecan, Table 12): 13.03
- regulation ([3]; Aggrecan, Table 12): 15.31 and 11.52 and 12.27
- Mean regulation ([3]; Aggrecan, Table 16): 13.03
- regulation ([3]; Aggrecan, Table 16): 15.31 and 11.52 and 12.27
- regulation, MMP13 ([4]; Day 7, fold regulation vs saline, single replicate well): −1.62 and 1.64 and 1.33
- Mean regulation, MMP13 ([4]; Day 7, fold regulation vs saline, triplicate wells): 0.45
- ΔCp, MMP13 ([4]; Day 7, human bone marrow MSC, chondrogenic medium + TGF beta 3, vs Actin, single replicate well): 5.33 and 3.92 and 4.23
- 2^-ΔΔCp vs saline, MMP13 [4, 7]: 0.6184 and 1.6434 and 1.3256
- ΔΔCp vs saline, MMP13 [4, 7]: 0.693 and −0.72 and −0.41
- Mean ΔCp, MMP13 ([4]; Day 7, vs Actin, triplicate wells): 4.493
- Cp, MMP13 ([4]; MMP13, Day 22, Table 12): 20.77 and 20.68 and 20.35
- ΔΔCp vs saline ([4]; MMP13, Day 22, Table 12): 1.357 and 1.277 and 1.687
- 2^-ΔΔCp vs saline ([4]; MMP13, Day 22, Table 16): 0.3905 and 0.4127 and 0.3106
- Cp, MMP13 ([4]; MMP13, Day 22, Table 16): 20.77 and 20.68 and 20.35
- ΔΔCp vs saline ([4]; MMP13, Day 22, Table 16): 1.357 and 1.277 and 1.687
- Mean regulation ([4]; MMP13, Day 22, Table 12): −2.73
- Mean regulation ([4]; MMP13, Day 22, Table 16): −2.73
- Mean ΔCp ([4]; Day 22, Table 12): 4.433
- ΔCp ([4]; Day 22, Table 12): 4.35 and 4.27 and 4.68
- Mean ΔCp ([4]; Day 22, Table 16): 4.433
- ΔCp ([4]; Day 22, Table 16): 4.35 and 4.27 and 4.68
- Cp TIMP1 ([5]; TIMP1, Table 12): 17.35 and 16.81
- 2-^ΔΔCp vs saline ([5]; TIMP1, Table 16): 1.5333 and 1.3256 and 1.7371
- Cp TIMP1 ([5]; TIMP1, Table 16): 17.35 and 16.81
- Mean regulation ([5]; TIMP1, vs saline, Table 12): 1.53
- regulation ([5]; TIMP1, vs saline, Table 12): 1.33 and 1.74 and 1.53
- regulation ([5]; TIMP1, vs saline, Table 16): 1.53 and 1.33 and 1.74
- Mean ΔCp ([5]; Table 12): 3.16
- ΔCp ([5]; Table 12): 3.36 and 2.97 and 3.15
- Mean ΔCp ([5]; Table 16): 3.16
- ΔCp ([5]; Table 16): 3.15 and 3.36 and 2.97
